Laboratory results published in US8741897B2, “Glucocorticoid mimetics, methods of making them, pharmaceutical compositions and uses thereof” (Boehringer Ingelheim Pharmaceuticals Inc., priority 2003, dated 2014).

Tested on: glucocorticoid receptor function
Experiment: one or more of the above assays (GR binding and glucocorticoid receptor cell assays: aromatase, IL-6, TAT, MMTV-Luc, IL-8, ICAM-Luc)
Format: cell-based
Conditions: assay not specified per compound

Structure (SMILES) | activity as agonists of the glucocorticoid receptor function in one or more of the above assays
CC(C)(CC(O)(Cc1cc2cc(N3CCOCC3)ncc2[nH]1)C(F)(F)F)c1cccc(F)c1 (centres unmarked) [1,1,1-Trifluoro-4-(3-fluorophenyl)-4-methyl-2-(5-morpholin-4-yl-1H-pyrrolo[2,3-c]pyridin-2-ylmethyl)pentan-2-ol] | potent agonists
CC(C)(CC(O)(Cc1cc2cc(N3CCOCC3)ncc2[nH]1)C(F)(F)F)c1cccc(-c2cncnc2)c1 (centres unmarked) [1,1,1-Trifluoro-4-methyl-2-(5-morpholin-4-yl-1H-pyrrolo[2,3-c]pyridin-2-ylmethyl)-4-(3-pyrimidin-5-ylphenyl)pentan-2-ol] | potent agonists
CC(C)(CC(O)(Cc1cc2ccncc2[nH]1)C(F)(F)F)c1cccc(C2OCCCO2)c1 (centres unmarked) [4-(3-[1,3]Dioxan-2-ylphenyl)-1,1,1-trifluoro-4-methyl-2-(1H-pyrrolo[2,3-c]pyridin-2-ylmethyl)pentan-2-ol] | potent agonists
Cc1ccc(F)cc1C(C)(C)CC(O)(Cc1cc2ccncc2[nH]1)C1CC1 (centres unmarked) [2-Cyclopropyl-4-(5-fluoro-2-methylphenyl)-4-methyl-1-(1H-pyrrolo[2,3-c]pyridin-2-yl)pentan-2-ol] | agonists
Cc1nccc2[nH]c(CC(O)(CC(C)(C)c3ccc(F)cc3O)C(F)(F)F)cc12 (centres unmarked) [5-Fluoro-2-[4,4,4-trifluoro-3-hydroxy-1,1-dimethyl-3-(4-methyl-1H-pyrrolo[3,2-c]pyridin-2-ylmethyl)butyl]phenol] | potent agonists
CC(C)(CC(O)(Cc1cc2cc(N3CCOCC3)ncc2[nH]1)C(F)(F)F)c1cccc(CN2CCOCC2)c1 (centres unmarked) [1,1,1-Trifluoro-4-methyl-4-(3-morpholin-4-ylmethylphenyl)-2-(5-morpholin-4-yl-1H-pyrrolo[2,3-c]pyridin-2-ylmethyl)pentan-2-ol] | potent agonists
COc1ccc(-c2cccnc2)cc1C(C)(C)CC(O)(Cc1cc2cc(Oc3ccccc3)ncc2[nH]1)C(F)(F)F (centres unmarked) [1,1,1-Trifluoro-4-(2-methoxy-5-pyridin-3-ylphenyl)-4-methyl-2-(5-phenoxy-1H-pyrrolo[2,3-c]pyridin-2-ylmethyl)pentan-2-ol] | potent agonists
CC(C)(CC(O)(Cc1cc2ccncc2[nH]1)C(F)(F)F)c1cccc(CN2CCOCC2)c1 (centres unmarked) [1,1,1-Trifluoro-4-methyl-4-(3-morpholin-4-ylmethylphenyl)-2-(1H-pyrrolo[2,3-c]pyridin-2-ylmethyl)pentan-2-ol] | potent agonists
COc1ccc(F)cc1C(C)(C)CC(O)(Cc1cc2c(C#N)cccc2[nH]1)C(F)(F)F (centres unmarked) [2-[4-(5-Fluoro-2-methoxyphenyl)-2-hydroxy-4-methyl-2-trifluoromethylpentyl]-1H-indole-4-carbonitrile] | potent agonists
CC(C)(CC(O)(Cc1cc2cc(N3CCCCC3)ncc2[nH]1)C(F)(F)F)c1ccccc1 (centres unmarked) [1,1,1-Trifluoro-4-methyl-4-phenyl-2-(5-piperidin-1-yl-1H-pyrrolo[2,3-c]pyridin-2-ylmethyl)pentan-2-ol] | potent agonists
CC(C)(CC(O)(Cc1cc2cc(Br)ccc2[nH]1)C(F)(F)F)c1cc(Cl)cc2c1OCC2 (centres unmarked) [2-(5-Bromo-1H-indol-2-ylmethyl)-4-(5-chloro-2,3-dihydrobenzofuran-7-yl)-1,1,1-trifluoro-4-methylpentan-2-ol] | potent agonists
COc1ccc(C)cc1C(C)(C)CC(O)(Cc1cc2nc(N3CCCC3)ncc2[nH]1)C(F)(F)F (centres unmarked) [1,1,1-Trifluoro-4-(2-methoxy-5-methylphenyl)-4-methyl-2-(2-pyrrolidin-1-yl-5H-pyrrolo[3,2-d]pyrimidin-6-ylmethyl)pentan-2-ol] | potent agonists
COc1ccc(F)cc1C(C)(C)CC(O)(Cc1[nH]c2ccncc2c1Cl)C(F)(F)F (centres unmarked) [2-(3-Chloro-1H-pyrrolo[3,2-c]pyridin-2-ylmethyl)-1,1,1-trifluoro-4-(5-fluoro-2-methoxyphenyl)-4-methylpentan-2-ol] | potent agonists
COc1ccc(-c2cncnc2)cc1C(C)(C)CC(O)(Cc1cc2cc(N(C)C)ncc2[nH]1)C(F)(F)F (centres unmarked) [2-(5-Dimethylamino-1H-pyrrolo[2,3-c]pyridin-2-ylmethyl)-1,1,1-trifluoro-4-(2-methoxy-5-pyrimidin-5-ylphenyl)-4-methylpentan-2-ol] | potent agonists
CC(C)(CC(O)(Cc1cc2ccncc2[nH]1)C1CC1)c1cc(Cl)cc2c1OCC2 (centres unmarked) [4-(5-Chloro-2,3-dihydrobenzofuran-7-yl)-2-cyclopropyl-4-methyl-1-(1H-pyrrolo[2,3-c]pyridin-2-yl)pentan-2-ol] | agonists
CCC(=O)c1ccc2[nH]c(CC(O)(CC(C)(C)c3cc(Cl)cc4c3OCC4)C(F)(F)F)cc2n1 (centres unmarked) [1-{2-[4-(5-Chloro-2,3-dihydrobenzofuran-7-yl)-2-hydroxy-4-methyl-2-trifluoromethylpentyl]-1H-pyrrolo[3,2-b]pyridin-5-yl}propan-1-one] | potent agonists
CC(C)(CC(O)(Cc1cc2nc(CN3CCOCC3)ccc2[nH]1)C(F)(F)F)c1cc(Cl)cc2c1OCC2 (centres unmarked) [4-(5-Chloro-2,3-dihydrobenzofuran-7-yl)-1,1,1-trifluoro-4-methyl-2-(5-morpholin-4-ylmethyl-1H-pyrrolo[3,2-b]pyridin-2-ylmethyl)pentan-2-ol] | potent agonists
CCN(C)c1cc2cc(CC(O)(CC(C)(C)c3cc(-c4ccccc4C#N)ccc3O)C(F)(F)F)[nH]c2cn1 (centres unmarked) [3′-{3-[5-(Ethylmethylamino)-1H-pyrrolo[2,3-c]pyridin-2-ylmethyl]-4,4,4-trifluoro-3-hydroxy-1,1-dimethylbutyl}-4′-hydroxybiphenyl-2-carbonitrile] | potent agonists
COc1ccc(-c2ccccc2C#N)cc1C(C)(C)CC(O)(Cc1cc2c(C)cncc2[nH]1)C(F)(F)F (centres unmarked) [4′-Methoxy-3′-[4,4,4-trifluoro-3-hydroxy-1,1-dimethyl-3-(4-methyl-1H-pyrrolo[2,3-c]pyridin-2-ylmethyl)butyl]biphenyl-2-carbonitrile] | potent agonists
Cc1ccc(F)cc1C(C)(C)CC(O)(Cc1cc2c(C)cncc2[nH]1)C(F)(F)F (centres unmarked) [1,1,1-Trifluoro-4-(5-fluoro-2-methylphenyl)-4-methyl-2-(4-methyl-1H-pyrrolo[2,3-c]pyridin-2-ylmethyl)pentan-2-ol] | potent agonists
Cc1nc(C#N)cc2[nH]c(CC(O)(CC(C)(C)c3cc(S(C)(=O)=O)cc4c3OCC4)C(F)(F)F)cc12 (centres unmarked) [2-[2-Hydroxy-4-(5-methanesulfonyl-2,3-dihydrobenzofuran-7-yl)-4-methyl-2-trifluoromethylpentyl]-4-methyl-1H-pyrrolo[3,2-c]pyridine-6-carbonitrile] | potent agonists
CC(C)(CC(O)(Cc1cc2cc(N3CCOCC3)ncc2[nH]1)C(F)(F)F)c1ccccc1 (centres unmarked) [1,1,1-Trifluoro-4-methyl-2-(5-morpholin-4-yl-1H-pyrrolo[2,3-c]pyridin-2-ylmethyl)-4-phenylpentan-2-ol] | potent agonists
CC(C)(CC(O)(Cc1cc2ccncc2[nH]1)C(F)(F)F)c1cc(-c2ccsc2)ccc1O (centres unmarked) [4-Thiophen-3-yl-2-[4,4,4-trifluoro-3-hydroxy-1,1-dimethyl-3-(1H-pyrrolo[2,3-c]pyridin-2-ylmethyl)butyl]phenol] | potent agonists
Cc1ccc(F)cc1C(C)(C)CC(O)(Cc1cc2cc(-c3ccccc3)ncc2[nH]1)C(C)(C)C (centres unmarked) [5-(5-Fluoro-2-methylphenyl)-2,2,5-trimethyl-3-(5-phenyl-1H-pyrrolo[2,3-c]pyridin-2-ylmethyl)hexan-3-ol] | agonists
COc1ccc(Br)cc1C(C)(C)CC(O)(Cc1cc2cc(N(C)C)ncc2[nH]1)C(F)(F)F (centres unmarked) [4-(5-Bromo-2-methoxyphenyl)-2-(5-dimethylamino-1H-pyrrolo[2,3-c]pyridin-2-ylmethyl)-1,1,1-trifluoro-4-methylpentan-2-ol] | potent agonists
CC(C)(CC(O)(Cn1ccc2c1CCCC2=O)C(F)(F)F)c1cc(-c2cncnc2)ccc1O (centres unmarked) [1-[2-Hydroxy-4-(2-hydroxy-5-pyrimidin-5-ylphenyl)-4-methyl-2-trifluoromethylpentyl]-1,5,6,7-tetrahydroindol-4-one] | agonists
COc1ccc(-c2cncnc2)cc1C(C)(C)CC(O)(Cc1cc2cc(OC(C)C)ncc2[nH]1)C(F)(F)F (centres unmarked) [1,1,1-Trifluoro-2-(5-isopropoxy-1H-pyrrolo[2,3-c]pyridin-2-ylmethyl)-4-(2-methoxy-5-pyrimidin-5-ylphenyl)-4-methylpentan-2-ol] | potent agonists
COc1cc(F)ccc1C(C)(C)CC(O)(Cc1cc2c(C)nccc2[nH]1)C(F)(F)F (centres unmarked) [1,1,1-Trifluoro-4-(4-fluoro-2-methoxyphenyl)-4-methyl-2-(4-methyl-1H-pyrrolo[3,2-c]pyridin-2-ylmethyl)pentan-2-ol] | potent agonists
CC(C)(CC(O)(Cc1cc2nc(CN3CCOCC3)ccc2[nH]1)C(F)(F)F)c1cc(Cl)ccc1O (centres unmarked) [4-Chloro-2-[4,4,4-trifluoro-3-hydroxy-1,1-dimethyl-3-(5-morpholin-4-ylmethyl-1H-pyrrolo[3,2-b]pyridin-2-ylmethyl)butyl]phenol] | potent agonists
